# ChEMBL document CHEMBL1157069, “JBIR-22, an inhibitor for protein-protein interaction of the homodimer of proteasome assembly factor 3” (J Nat Prod, 2010)
# How the values were obtained:
# [1] = target: T1, Proteasome assembly chaperone 3 (Homo sapiens, UniProt Q9BT73); assay: Inhibition of PAC3 homodimerization by protein fragment complementation assay
# T1 sequence (Q9BT73 whole entry): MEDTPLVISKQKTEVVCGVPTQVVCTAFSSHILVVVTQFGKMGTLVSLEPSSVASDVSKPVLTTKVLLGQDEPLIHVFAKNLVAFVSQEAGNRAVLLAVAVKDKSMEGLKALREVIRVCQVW
# PAC1-PAC2 complex = target: T2, PAC1-PAC2 complex (Homo sapiens, UniProt O95456+Q969U7); assay: Inhibition of PAC1/PAC2 interaction by protein fragment complementation assay; format: protein-complex assay
# T2 sequence (O95456 whole entry): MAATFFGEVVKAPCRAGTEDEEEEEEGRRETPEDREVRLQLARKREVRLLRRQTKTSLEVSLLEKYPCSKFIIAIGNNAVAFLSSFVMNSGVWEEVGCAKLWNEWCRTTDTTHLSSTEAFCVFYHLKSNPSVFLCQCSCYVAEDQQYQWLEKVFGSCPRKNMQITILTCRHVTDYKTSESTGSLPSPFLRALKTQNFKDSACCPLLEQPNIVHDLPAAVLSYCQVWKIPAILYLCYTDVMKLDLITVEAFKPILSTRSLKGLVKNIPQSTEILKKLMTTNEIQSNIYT
# T2 sequence (Q969U7 whole entry): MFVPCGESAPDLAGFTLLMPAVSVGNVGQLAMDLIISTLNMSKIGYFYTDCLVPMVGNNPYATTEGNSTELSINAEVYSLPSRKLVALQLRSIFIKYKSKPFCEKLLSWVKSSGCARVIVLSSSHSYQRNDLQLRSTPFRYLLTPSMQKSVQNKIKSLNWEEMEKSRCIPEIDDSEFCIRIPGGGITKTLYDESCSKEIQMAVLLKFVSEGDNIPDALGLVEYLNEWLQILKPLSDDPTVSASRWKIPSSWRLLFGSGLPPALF
# [2] = target: Catenin beta-1/Transcription factor 7 (Homo sapiens, UniProt P35222+P36402); assay: Inhibition of T cell factor7/beta-catenin interaction by protein fragment complementation assay; format: cell-based
# Chain of Catenin beta-1/Transcription factor 7 (P36402 whole entry, the tested form may be a part): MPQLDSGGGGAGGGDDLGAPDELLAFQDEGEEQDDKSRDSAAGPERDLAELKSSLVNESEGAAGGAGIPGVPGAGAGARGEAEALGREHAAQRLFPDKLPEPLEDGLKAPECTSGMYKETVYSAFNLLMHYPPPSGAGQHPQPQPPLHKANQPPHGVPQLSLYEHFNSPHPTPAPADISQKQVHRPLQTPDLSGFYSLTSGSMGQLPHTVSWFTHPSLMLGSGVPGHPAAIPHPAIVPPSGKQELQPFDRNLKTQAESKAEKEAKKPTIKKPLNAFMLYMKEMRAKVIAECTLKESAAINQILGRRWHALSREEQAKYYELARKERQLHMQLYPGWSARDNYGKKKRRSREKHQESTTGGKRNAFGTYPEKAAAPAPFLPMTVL
# Chain of Catenin beta-1/Transcription factor 7 (P35222 whole entry, the tested form may be a part): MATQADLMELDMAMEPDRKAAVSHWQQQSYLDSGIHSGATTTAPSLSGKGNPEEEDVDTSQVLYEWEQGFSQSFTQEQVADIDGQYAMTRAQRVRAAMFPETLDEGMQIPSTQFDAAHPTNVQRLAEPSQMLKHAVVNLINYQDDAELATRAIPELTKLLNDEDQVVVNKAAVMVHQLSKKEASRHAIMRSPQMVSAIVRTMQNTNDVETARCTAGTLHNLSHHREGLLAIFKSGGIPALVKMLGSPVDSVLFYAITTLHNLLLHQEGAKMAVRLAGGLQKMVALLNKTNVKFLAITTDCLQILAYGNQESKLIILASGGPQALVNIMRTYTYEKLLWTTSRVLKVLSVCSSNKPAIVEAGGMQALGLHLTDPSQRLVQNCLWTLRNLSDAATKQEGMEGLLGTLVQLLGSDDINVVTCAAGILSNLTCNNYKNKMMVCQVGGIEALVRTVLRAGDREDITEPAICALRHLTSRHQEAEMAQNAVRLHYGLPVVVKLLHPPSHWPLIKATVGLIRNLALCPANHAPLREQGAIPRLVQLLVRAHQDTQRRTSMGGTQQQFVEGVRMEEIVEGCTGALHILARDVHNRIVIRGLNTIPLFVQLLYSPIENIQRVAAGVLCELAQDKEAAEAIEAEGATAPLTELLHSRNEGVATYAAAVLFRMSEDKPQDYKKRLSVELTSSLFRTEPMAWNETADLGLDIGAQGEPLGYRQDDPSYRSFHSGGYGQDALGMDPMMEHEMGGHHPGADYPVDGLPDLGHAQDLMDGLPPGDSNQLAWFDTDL
# HeLa [3] = assay: Cytotoxicity against human HeLa cells after 120 hrs by WST8 assay; format: functional, cell-based
# HeLa [4] = assay: Cytotoxicity against human HeLa cells after 48 hrs by WST8 assay; format: functional, cell-based
IC50 [1],IC50 (PAC1-PAC2 complex),IC50 [2],SMILES,IC50 (HeLa [3]),IC50 (HeLa [4])
200 nM,6000 nM,6000 nM,CC(C)[C@@](O)(C[C@H]1C(=O)/C(=C(\O)[C@H]2[C@@H]3CCCC[C@H]3C=C[C@H]2C)C(=O)N1C)C(=O)O,68000 nM,
,,,COc1cccc2c1C(=O)c1c(O)c3c(c(O)c1C2=O)C[C@@](O)(C(=O)CO)C[C@@H]3O[C@H]1C[C@H](N)[C@H](O)[C@H](C)O1 [DOXORUBICIN],55 nM,37 nM
,,,CC(=O)O[C@H]1C(=O)[C@@]2(C)[C@H]([C@H](OC(=O)c3ccccc3)[C@]3(O)C[C@H](OC(=O)[C@H](O)[C@@H](NC(=O)c4ccccc4)c4ccccc4)C(C)=C1C3(C)C)[C@]1(OC(C)=O)CO[C@@H]1C[C@@H]2O [PACLITAXEL],190 nM,30 nM
